The test system of one data set is Escherichia coli. Nature of the data set: antimicrobial spectrum, minimal inhibitory concentration. Type of data set: cell-based. The source says: (§1) The antimicrobial spectrum of the 9-acyl-3"-thiomethoxymethyl-SF-837 substance obtained according to the present invention is shown in Table 1.
(§2) The antimicrobial spectrum of the 9-acetyl- and 9-propionyl-3"-thiomethoxymethyl-SF-837 substance made according to the invention.

For a further data set, the system named is Mycobacterium 607. The data set is described as above. Type of data set: cell-based.
Text: as §1, §2

Data set [1] has as its system Mycoplasma gallisepticum CH3T. The data set is described as above. To be noted: Mycoplasmoides gallisepticum. Type of data set: cell-based.
Text: as §1, §2

In data set [2] the test system is Mycoplasma gallisepticum KP-13. Described as above. To be noted: Mycoplasmoides gallisepticum, KP13. Type of data set: cell-based.
Text: as §1, §2

Data set [3] deals with Mycoplasma gallisepticum KP-3. Described as above. It is filed as cell-based. Particulars: Mycoplasmoides gallisepticum, KP3.
Text: as §1, §2

The subject of data set [4] is Mycoplasma gallisepticum S-15P. The description is as above. Particulars: Mycoplasmoides gallisepticum, read-out: Minimal Inhibitory Concentration. It is filed as cell-based.
Text: as §1, §2

Data set [5] has as its system Mycoplasma gallisepticum S-35P. The data set is described as above. To be noted: Mycoplasmoides gallisepticum, read-out: Minimal Inhibitory Concentration. It is filed as cell-based.
Text: as §1, §2

For data set [6], the system named is Mycoplasma gallisepticum S-6. The data set is described as above. It is filed as cell-based. Particulars: Mycoplasmoides gallisepticum, S6.
Text: as §1, §2

The subject of data set [7] is Neisseria gonorrhoeae Megurita. The data set is described as above. Type of data set: cell-based.
Text: as §1, §2

In a further data set the test system is Neisseria meningitidis. The data set is described as above. Type of data set: cell-based.
Text: as §1, §2

The test system of a further data set is Staphylococcus aureus. The description is as above. It is filed as cell-based.
Text: as §1, §2

A further data set relates to Vibrio coli 34E. The description is as above. Type of data set: cell-based. To be noted: Campylobacter coli.
Text: as §1, §2

For another data set, the system named is Vibrio coli SD-358. The data set is described as above. To be noted: Campylobacter coli, SD358. Type of data set: cell-based.
Text: as §1, §2

A further data set has as its system Vibrio coli SD-362. The description is as above. Type of data set: cell-based. To be noted: Campylobacter coli, SD362.
Text: as §1, §2

The subject of data set [8] is Mycoplasma gallisepticum T-4AT (tyrosine-resistant). As to the kind of experiment: microbe, parasite or virus in culture. Type of data set: cell-based. To be noted: Mycoplasmoides gallisepticum, read-out: Minimal Inhibitory Concentration.
Text: as §1, §2

Data set [9] deals with Staphylococcus aureus Strain 209-P. Nature of the data set: therapeutic effect on staphylococcal infection of mice (Table 2). To be noted: 350mg/Kg oral; intraperitoneal infection by Staphylococcus aureus 209-P. Type of data set: in vivo. The source says:
Since the 9-acyl-3"-thiomethoxymethyl-SF-837 substance is inhibitory against Gram-positive bacteria as the SF-837 substance is, it is as well available as an antimicrobial agent. Particularly, it is notable that the in vitro antimicrobial activity of the 9-acyl-3"-thiomethoxymethyl-SF-837 substance of the present invention against Escherichia coli, Mycobacterium, Mycoplasma, and macrolide-resistant Mycoplasma is higher than that of the SF-837 substance. Furthermore, the results of the therapeutic tests using the mice infected by Staphylococcus aureus Strain 209 P was better with the said 9-acyl-3"-thiomethoxymethyl-SF-837 substance than with its parent substance (see Table 2).
Therapeutic effect of the 9-acyl-3"thiomethoxy-methyl-SF-837 substance made according to the invention on the staphylococcal infection of mice in laboratory*).
*)Infection of mouse intraperitoneally by Staphylococcus aureus Strain

The test system of data set [10] is Staphylococcus aureus 209-P. Nature of the data set: therapeutic effect, treatment of animals infected by Staphylococcus (Table 3 A). It is filed as in vivo, ICR-JCL mouse. Particulars: orally once, 10 LD50. The source says:
Therapeutic effect of the 9-acyl-3"-thiomethoxymethyl-SF-837 substance against bacterial infections.
A. treatment of animals infected by Staphylococcus. Animals tested: ICR-JCL mouse, 4-week old, male, 10 heads for each group.
Bacterium inoculated: Staphylococcus aureus 209-P.
Method of administration: Samples were suspended in a sterilized 2% aqueous gum arabic solution and administered once to the mice inoculated with the bacterium.

Data set [11] deals with Streptococcus pyrogenes Ti-125 Gr-A Type I. As to the kind of experiment: therapeutic effect, treatment of animals infected by Streptococcus (Table 3 B). It is filed as in vivo, ICR-JCL mouse. To be noted: orally once, 5LD50. How it is done: B. treatment of animals infected by Streptococcus
Animals tested: The same as in A.
Method of administration: The same as in A.
Bacterium inoculated: Streptococcus pyrogenes Ti-125 Gr-A Type I.
Inoculum size: 1× 10^7 cells/0.5 ml/mouse(5LD50).

The nature of a further data set: acute toxicity. It is filed as in vivo, ICR-JCL mice. To be noted: intraperitoneal, male mice, dead/tested. The source says: The acute toxicity of the 9-acyl-3"-thiomethoxymethyl-SF-837 substance
Animals tested: ICR-JCL mice, male.
Samples: Each substance was suspended in a 5% aqueous arabic gum solution.
Method of administration: Intraperitoneal injection.

[12] abbreviates: S15P, Mycoplasma gallisepticum S-15P.
Setting [13] is: S35P, Mycoplasma gallisepticum S-35P.

Results on four compounds are retold here after patent US4029881A, “Antibiotic 9-acyl-3"-thiomethoxymethyl-SF-837 composition and process for preparing the same” (Meiji Seika Co., Ltd., priority 1972, dated 1977).

Values after ≈ are worked out from the molar mass of the structure shown. Read-outs that look alike come from different tables or passages of the source.

`CCC(=O)OC1CC(=O)OC(C)CC=CC=CC(O)C(C)CC(CC=O)C(OC2OC(C)C(OC3CC(C)(O)C(OC(=O)CC)C(C)O3)C(N(C)C)C2O)C1OC` (stereo not shown) [SF-837]: the MIC in the data set on Escherichia coli was 100 µg/mL (≈ 123 µM); in the data set with Mycobacterium 607, 25 µg/mL (≈ 30.7 µM); in data set [1], less than 0.05 µg/mL; in [2], less than 0.05 µg/mL; in data set [3] it was less than 0.05 µg/mL; in [4] it was 0.05 µg/mL (≈ 0.0614 µM). In addition, the MIC in [5] stood at 0.05 µg/mL (≈ 0.0614 µM); in data set [6], 0.1 µg/mL (≈ 0.123 µM); in [7], 25 µg/mL (≈ 30.7 µM); against Neisseria meningitidis it was 6.25 µg/mL (≈ 7.68 µM); against Staphylococcus aureus, 0.78 µg/mL (≈ 0.958 µM); against Vibrio coli 34E, 12.5 µg/mL (≈ 15.4 µM). For the same compound, the MIC with Vibrio coli SD-358 was greater than 50 µg/mL; in the data set with Vibrio coli SD-362, greater than 50 µg/mL; in data set [8] it was greater than 100 µg/mL. Besides, the “Survival rate in a week after oral administration” value (“Survival rate in a week” below) in [9] came out at 37.5%. Also, the Survival rate in data set [10] (150 mg/Kg) is recorded as 20%; in [10] (200 mg/Kg) it was 40%; in data set [10] (350 mg/Kg), 60%; in data set [10] (400 mg/Kg) it was 90%; in [11] (100 mg/Kg), 70%; in [11] (200 mg/Kg), 90%. Besides, the Survival rate in data set [11] (300 mg/Kg) and in data set [11] (400 mg/Kg) was 100% each time. Further, the Mortality in “acute toxicity” (2,000 mg/Kg) and in “acute toxicity” (4,000 mg/Kg) was 2/3 each time.

With `CCC(=O)OC1CC(=O)OC(C)CC=CC=CC(OC(C)=O)C(C)CC(CC=O)C(OC2OC(C)C(OC3CC(C)(O)C(OC(=O)CC)C(C)O3)C(N(C)C)C2O)C1OC` (stereo not shown) [9-Acetyl-SF-837, reference compound], the Survival rate was found to be 80% in [10] (150 mg/Kg); 100% in data set [10] (200 mg/Kg); 100% in data set [10] (350 mg/Kg); 100% in data set [10] (400 mg/Kg); 100% in data set [11] (100 mg/Kg); 100% in data set [11] (200 mg/Kg). The Survival rate in [11] (300 mg/Kg) and in data set [11] (400 mg/Kg) was 100% each time. For the same compound, the Mortality is given as 0/3 in the data set “acute toxicity” (2,000 mg/Kg) and 1/3 in “acute toxicity” (4,000 mg/Kg).

Turning to `CCC(=O)OC1CC(=O)OC(C)CC=CC=CC(OC(C)=O)C(C)CC(CC=O)C(OC2OC(C)C(OC3CC(C)(OCSC)C(OC(=O)CC)C(C)O3)C(N(C)C)C2O)C1OC` (stereo not shown) [9-acetyl-3"-thiomethoxymethyl-SF-837], the MIC is 50 µg/mL (≈ 54.6 µM) against Escherichia coli; 6.25 µg/mL (≈ 6.82 µM) against Mycobacterium 607; less than 0.1 µg/mL in data set [1]; less than 0.1 µg/mL in data set [2]; less than 0.1 µg/mL in [3]; less than 0.1 µg/mL in data set [4] (setting [12]). For the same compound, the MIC in [5] (setting [13]) was less than 0.1 µg/mL; in data set [6], less than 0.1 µg/mL; in data set [7] it was 100 µg/mL (≈ 109 µM); in the data set with Neisseria meningitidis, 6.25 µg/mL (≈ 6.82 µM); with Staphylococcus aureus it was 0.78 µg/mL (≈ 0.851 µM); in the data set with Vibrio coli 34E, 25 µg/mL (≈ 27.3 µM). Moreover, the MIC against Vibrio coli SD-358 was greater than 50 µg/mL; with Vibrio coli SD-362, 25 µg/mL (≈ 27.3 µM); in data set [8], 12.5 µg/mL (≈ 13.6 µM). The “Survival rate in a week” value in data set [9] came out at 90%. Also, the Survival rate in data set [10] (150 mg/Kg) is 30%; in data set [10] (200 mg/Kg), 80%; in [10] (350 mg/Kg) it was 90%; in [10] (400 mg/Kg), 100%; in data set [11] (100 mg/Kg), 100%; in data set [11] (200 mg/Kg), 100%. Further, the Survival rate in data set [11] (300 mg/Kg) and in data set [11] (400 mg/Kg) was 100% in each case. Further, the Mortality in “acute toxicity” (2,000 mg/Kg) and in the data set “acute toxicity” (4,000 mg/Kg) was 0/3 in each case.

For `CCC(=O)OC1C=CC=CCC(C)OC(=O)CC(OC(=O)CC)C(OC)C(OC2OC(C)C(OC3CC(C)(OCSC)C(OC(=O)CC)C(C)O3)C(N(C)C)C2O)C(CC=O)CC1C` (stereo not shown) [9-propionyl-3"-thiomethoxymethyl-SF-837], the MIC in the data set on Escherichia coli was 50 µg/mL (≈ 53.8 µM); with Mycobacterium 607 it was 6.25 µg/mL (≈ 6.72 µM); in data set [1] it was less than 0.1 µg/mL; in data set [2], less than 0.1 µg/mL; in [3], less than 0.1 µg/mL; in [4] (setting [12]) it was less than 0.1 µg/mL. Also, the MIC in data set [5] (setting [13]) is less than 0.1 µg/mL; in [6] it was less than 0.1 µg/mL; in data set [7] it was 100 µg/mL (≈ 108 µM); against Neisseria meningitidis, 6.25 µg/mL (≈ 6.72 µM); with Staphylococcus aureus, 0.78 µg/mL (≈ 0.839 µM); against Vibrio coli 34E, 25 µg/mL (≈ 26.9 µM). The MIC against Vibrio coli SD-358 was greater than 50 µg/mL; with Vibrio coli SD-362, 25 µg/mL (≈ 26.9 µM); in data set [8], 12.5 µg/mL (≈ 13.4 µM). Also, the “Survival rate in a week” value in [9] amounted to 90%. Also, the Survival rate stood at 30% in data set [10] (150 mg/Kg); 70% in [10] (200 mg/Kg); 90% in [10] (350 mg/Kg); 100% in data set [10] (400 mg/Kg); 100% in data set [11] (100 mg/Kg); 100% in data set [11] (200 mg/Kg). The Survival rate in data set [11] (300 mg/Kg) and in data set [11] (400 mg/Kg) was 100% in each case. The Mortality in “acute toxicity” (2,000 mg/Kg) and in “acute toxicity” (4,000 mg/Kg) was 0/3 in each case.
